Source: patent publication US20250186326A1, “Anti-Aging Compositions” (PROGELIFE, priority 2022, published 2025)

Experiments:
[1] = tested on: farnesylation of prelamin A; assay: Western blot of prelamin A in human skin fibroblasts (inhibition of farnesylation); type: cell-based; conditions: human skin fibroblasts AG13334, 72 h, Ritonavir 4 μM and Lopinavir 20 μM added
Experimental: (§1) Control Human fibroblast from skin (AG13334) were obtained from Coriell Institute. Cells were maintained in culture according to supplier information at 37° C. in a humidified atmosphere containing 5% CO2.
(§2) Fibroblasts were cultured 72 h without culture-media renewal.
(§3) Pravastatin/Compound II.3a • 14. Pravastatin/Compound II.2 • 15. Pravastatin/Compound I.12 • 16. Pravastatin/Compound II.5
(§4) Ritonavir (4 μM) and Lopinavir (20 μM) were added in all tested conditions to improve the lower limit of detection of prenylated prelamin A in western blots.
(§5) Total fibroblast proteins were extracted after 72 hours treatment in 100 μl of NP40 (Invitrogen) with 1× protease and phosphatase inhibitor cocktail (Life Technologies). Lysates were incubated on ice for 30 minutes, with vortexing at 10-minute intervals. Finally, they were sonicated four times (20 sec each) and then centrifuged at 13000 rpm for 10 minutes at 4° C.
(§6) Protein concentrations were determined with the BCA™ Protein Assay (Life Technologies).
(§7) The following antibodies were used in this study: rabbit monoclonal anti-lamin A/C (ab108922, 1/1000, Abcam, Amsterdam, Netherlands), mouse monoclonal anti-prelamin A (MABT858, Millipore, Molsheim, France), mouse monoclonal anti-HDJ2 (MA5-12748, Thermoscientific, France). Secondary antibodies conjugated with IR-Dye 800CW or 680 were used according to the manufacturer's instructions (926-32213 and 926-68072, 1/5000, Li-COR Biosciences).
(§8) Protein lysates were separated on NuPAGE™ Novex™ 8% Bis-Tris Midi Protein Gels (Life Technologies) and transferred to Immobilon-FL PVDF membranes (Millipore, Molsheim, France). Membranes were blocked for one hour in 1:1 diluted blocking buffer for near fluorescent western blotting (Rockland, Le Perray, France). Blocked membranes were incubated with primary antibody anti-prelamin A overnight at 4° C., following which they were washed and incubated with conjugated secondary antibody for one hour at room temperature. Then, this step was repeated with primary antibodies for HDJ2 and LMNA/C, and conjugated secondary antibodies.
(§9) Bound antibodies were detected and analyzed on an Odyssey imaging system (Li-COR Biosciences, Bad Homburg, Germany) according to the manufacturer's instructions. Revert Protein Stain (Li-COR Biosciences) was used as a total protein loading control.

farnesylation of HDJ2 = assay: Western blot of unfarnesylated HDJ2 in human skin fibroblasts (inhibition of farnesylation); type: cell-based; conditions: human skin fibroblasts AG13334, 72 h, Ritonavir 4 μM and Lopinavir 20 μM added
Experimental: as §1, §2, §3, §4, §5, §6, §7, §8, §9

wrinkles/fine lines = conditions: 3 ppm pal-KTTKS in moisturizer, topical, 12 weeks, split-face; cited from earlier work
[2] = tested compound combined with Alendronate 10 μM
[3] = tested compound combined with Pravastatin 10 μM
[4] = controls: alendronate and/or pravastatin 10 μM without tested compound

| Compound | prelamin A band (western blot, FIG. 1) [1, 2] | unfarnesylated HDJ2 band (western blot, FIG. 1) (farnesylation of HDJ2; [2]) | prelamin A band (western blot, FIG. 1) [1, 3] | unfarnesylated HDJ2 band (western blot, FIG. 1) (farnesylation of HDJ2; [3]) | other results |
| --- | --- | --- | --- | --- | --- |
| COc1ccc([C@@H]2CC(=O)c3c(O)cc(O[C@@H]4O[C@H](CO)[C@@H](O)[C@H](O)[C@H]4O[C@@H]4O[C@@H](C)[C@H](O)[C@@H](O)[C@H]4O)cc3O2)cc1O [Compound I.7a] | Clear bands | Clear bands |  |  |  |
| palmitoyl-lysine-threonine-threonine-lysine-serine [pal-KTTKS] |  |  |  |  | reduction in wrinkles/fine lines vs. placebo control (quantitative technical and expert grader image analysis) (wrinkles/fine lines): significant improvement |
| C[C@@H]1O[C@@H](O[C@H]2[C@H](Oc3cc(O)c4c(c3)O[C@H](c3ccc(O)cc3)CC4=O)O[C@H](CO)[C@@H](O)[C@@H]2O)[C@H](O)[C@H](O)[C@H]1O [Compound I.8a] | Clear bands | Clear bands |  |  |  |
| OC[C@H]1O[C@@H](OCCc2ccc(O)cc2)[C@H](O)[C@@H](O)[C@@H]1O [Compound I.12] |  |  | Clear bands | Clear bands |  |
| O=C1c2cccc(O)c2C(=O)c2c(O)cc(CO)cc21 [Compound II.2] |  |  | Clear bands | Clear bands |  |
| Oc1ccc(/C=C/c2cc(O)cc(O)c2)cc1 [Compound I.1a] | Clear bands | Clear bands |  |  |  |
| Oc1cc(O)c2c(c1)O[C@H](c1ccc(O)c(O)c1)[C@@H](O)C2 [Compound II.3a] |  |  | Clear bands | Clear bands |  |
| NCCCC(O)(P(=O)(O)O)P(=O)(O)O [alendronate, reference compound] |  |  |  |  | prelamin A band (western blot, FIG. 1) [1, 4]: essentially absent; unfarnesylated HDJ2 band (western blot, FIG. 1) (farnesylation of HDJ2; [4]): essentially absent |
| O=c1cc(-c2ccc(O)cc2)oc2cc(O)cc(O)c12 [Compound II.1] |  |  | Clear bands | Clear bands |  |
| O=c1c(O)c(-c2ccc(O)c(O)c2)oc2cc(O)cc(O)c12 [Compound II.5] |  |  | Clear bands | Clear bands |  |
| O=c1c2cc(O)c(O)cc2oc2cc(O)c([C@@H]3O[C@H](CO)[C@@H](O)[C@H](O)[C@H]3O)c(O)c12 [Compound I.6a] | Clear bands | Clear bands |  |  |  |
